Target: T1, USP7 (Homo sapiens, UniProt Q93009)
T1 construct: The USP7 construct was PCR amplified and cloned into a pFLAG-CMV-6a vector (Sigma-Aldrich) with an N-terminal FLAG tag; made in house; host or cells: HEK293T
Assay: USP7 biochemical IC50 assay (fluorescence polarisation, TAMRA labelled peptide linked to ubiquitin via an iso-peptide bond)
Settings: 30 min pre-incubation of enzyme and compound, read after 2 hr incubation at room temperature, read-out: IC50 range
Procedure: In Vitro USP7 Inhibition Assay
Expression and Purification of USP7
The USP7 construct was PCR amplified and cloned into a pFLAG-CMV-6a vector (Sigma-Aldrich) with an N-terminal FLAG tag. HEK293T cells were transfected with FLAG-USP7 using TransIT-LT1 transfection reagent (Mirus) according to the manufacturer's instructions. Cells were harvested 40 hours after transfection. […] The resin was washed two times with low salt buffer plus protease inhibitors (complete mini, Roche) and phosphatase inhibitors (PhosSTOP mini, Roche) and one time with high salt buffer (20 mM Tris, pH 7.5, 500 mM NaCl, 0.5 mM EDTA, 5 mM beta-mercaptoethanol, protease inhibitors (complete mini, Roche) and phosphatase inhibitors (PhosSTOP mini, Roche). To elute the bound USP7, elution buffer (10 mM Tris, pH 7.5, 150 mM NaCl, 0.5 mM EDTA, 10% glycerol, 0.5% NP40, 5 mM beta-mercaptoethanol, 0.15 mg/ml 3×FLAG peptide (Sigma-Aldrich)) was added to the resin and incubated at 4° C. for 2.5 hours rotating. The resin was centrifuged at 4000 rpm for 30 seconds, and the supernatant containing purified FLAG-USP7 was removed and stored at −80° C.
USP7 Biochemical IC50 Assay
A typical 8-point dilution series would be 100, 30, 10, 3, 1, 0.3, 0.1, 0.03 μM final. […] Either 1 μl of 50% DMSO or diluted compound was added to the plate. USP7 was diluted in reaction buffer (20 mM Tris, pH 7.5, 100 mM NaCl, 0.05% Tween 20, 0.5 mg/ml BSA, 5 mM—beta mercaptoethanol) to the equivalent of 0.0025 μl/well and 10 μl of diluted USP7 was added to the compound. Enzyme and compound were incubated for 30 min at room temp. Reactions were initiated by the addition of 50 nM of TAMRA labelled peptide linked to ubiquitin via an iso-peptide bond as fluorescence polarisation substrate. Reactions were read immediately after addition of substrate and following a 2 hr incubation at room temperature. Readings were performed on a Pherastar Plus (BMG Labtech). λ Excitation 540 nm; λ Emission 590 nm.

T1 sequence (Q93009 whole entry): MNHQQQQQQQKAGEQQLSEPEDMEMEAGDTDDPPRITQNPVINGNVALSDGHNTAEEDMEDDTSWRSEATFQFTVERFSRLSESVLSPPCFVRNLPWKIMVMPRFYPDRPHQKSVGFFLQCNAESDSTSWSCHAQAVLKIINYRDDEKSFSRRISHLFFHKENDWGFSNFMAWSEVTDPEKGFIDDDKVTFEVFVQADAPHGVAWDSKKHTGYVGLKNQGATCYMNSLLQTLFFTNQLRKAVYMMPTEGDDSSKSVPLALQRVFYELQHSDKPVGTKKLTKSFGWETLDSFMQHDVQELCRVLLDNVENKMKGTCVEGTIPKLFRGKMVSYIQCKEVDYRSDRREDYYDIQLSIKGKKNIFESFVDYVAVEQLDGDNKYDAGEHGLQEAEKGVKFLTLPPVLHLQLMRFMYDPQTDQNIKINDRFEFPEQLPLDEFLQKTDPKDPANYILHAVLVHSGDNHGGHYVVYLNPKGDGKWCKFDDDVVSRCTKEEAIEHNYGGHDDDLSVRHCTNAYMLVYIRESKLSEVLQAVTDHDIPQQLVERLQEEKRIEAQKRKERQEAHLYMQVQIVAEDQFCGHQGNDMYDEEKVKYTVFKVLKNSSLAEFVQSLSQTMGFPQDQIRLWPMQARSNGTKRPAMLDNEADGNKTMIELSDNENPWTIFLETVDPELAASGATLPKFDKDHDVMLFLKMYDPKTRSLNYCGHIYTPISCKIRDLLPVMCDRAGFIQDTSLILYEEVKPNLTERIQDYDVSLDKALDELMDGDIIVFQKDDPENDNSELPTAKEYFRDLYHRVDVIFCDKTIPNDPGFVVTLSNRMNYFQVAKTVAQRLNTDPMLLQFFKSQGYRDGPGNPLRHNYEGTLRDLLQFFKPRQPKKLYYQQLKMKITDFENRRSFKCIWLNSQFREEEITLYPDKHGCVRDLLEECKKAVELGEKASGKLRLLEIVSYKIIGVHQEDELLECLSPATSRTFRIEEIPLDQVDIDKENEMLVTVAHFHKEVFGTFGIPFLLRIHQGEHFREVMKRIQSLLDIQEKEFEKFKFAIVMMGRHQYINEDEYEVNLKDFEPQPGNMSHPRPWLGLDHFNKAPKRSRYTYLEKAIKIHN

IC50 [µM]	Structure (SMILES)
1 to 10	CN(C)c1cc2c(c(-c3ccc(C#N)cc3C(N)=O)c1)CN(C#N)C2 [Example 285, 5-Cyano-2-(2-cyano-6-(dimethylamino)isoindolin-4-yl)benzamide]
1 to 10	N#Cc1ccc(-c2cc(NCCO)cc3c2CN(C#N)C3)cc1 [Example 271, 4-(4-cyanophenyl)-6-((2-hydroxyethyl)amino)isoindoline-2-carbonitrile]
1 to 10	N#CN1Cc2nc(N[C@H]3CC[C@H](O)CC3)nc(N3CCc4ccccc4C3)c2C1 [Example 199]
30 to 100	CN1CCC(C(=O)Nc2cc3c(c(-c4ccccc4)c2)CN(C#N)C3)C1 (stereo not drawn) [Example 43, N-(2-cyano-7-phenyl-isoindolin-5-yl)-1-methylpyrrolidine-3-carboxamide]
1 to 10	N#CN1Cc2ncnc(N3CCc4ccccc4C3)c2C1 [Example 183, 4-(3,4-dihydroisoquinolin-2(1H)-yl)-5,7-dihydro-6H-pyrrolo[3,4-c]pyrimidine-6-carbonitrile]
10 to 30	Cc1[nH]ncc1-c1nc2c(c(N3CCCC3C(N)=O)n1)CN(C#N)C2 (stereo not drawn) [Example 144, 1-(6-cyano-2-(5-methyl-1H-pyrazol-4-yl)-6,7-dihydro-5H-pyrrolo[3,4-d]pyrimidin-4-yl)pyrrolidine-2-carboxamide]
10 to 30	Cc1[nH]ncc1-c1nc2c(c(N3CCCC3)n1)CN(C#N)C2 [Example 134, 2-(5-methyl-1H-pyrazol-4-yl)-4-(pyrrolidin-1-yl)-5,7-dihydro-6H-pyrrolo[3,4-d]pyrimidine-6-carbonitrile]
1 to 10	N#CN1Cc2cccc(NC(=O)c3ccc(-c4ccncc4)cc3)c2C1 [Example 82, N-(2-cyanoisoindolin-4-yl)-4-(pyridin-4-yl)benzamide]
10 to 30	N#CN1Cc2nc(NC3CCOCC3)nc(-c3ccccc3)c2C1 [Example 189, 4-phenyl-2-((tetrahydro-2H-pyran-4-yl)amino)-5,7-dihydro-6H-pyrrolo[3,4-d]pyrimidine-6-carbonitrile]
1 to 10	CN(C)S(=O)(=O)c1ccccc1-c1cccc2c1CN(C#N)C2 [Example 174, 2-(2-cyanoisoindolin-4-yl)-N,N-dimethylbenzenesulfonamide]
1 to 10	CC(=O)Nc1cccc(-c2nc(NCCO)nc3c2CN(C#N)C3)c1 [Example 210, N-(3-(6-cyano-2-((2-hydroxyethyl)amino)-6,7-dihydro-5H-pyrrolo[3,4-d]pyrimidin-4-yl)phenyl)acetamide]
1 to 10	CC(=O)NCc1cc2c(c(-c3ccc(C#N)cc3C#N)c1)CN(C#N)C2 [Example 226, N-((2-cyano-7-(2,4-dicyanophenyl)isoindolin-5-yl)methyl)acetamide]
1 to 10	CC(=O)N1CCC(CCc2cc3c(c(-c4ccc(C#N)cc4)c2)CN(C#N)C3)CC1 [Example 257, 6-(2-(1-acetylpiperidin-4-yl)ethyl)-4-(4-cyanophenyl)isoindoline-2-carbonitrile]
1 to 10	N#CN1Cc2cccc(-c3cccc(C(=O)Nc4ccccc4)c3)c2C1 [Example 75, 3-(2-cyanoisoindolin-4-yl)-N-phenylbenzamide]
1 to 10	N#Cc1cc2c(c(-c3ccc(F)cc3C(N)=O)c1)CN(C#N)C2 [Example 296, 2-(2,6-dicyanoisoindolin-4-yl)-5-fluorobenzamide]
< 1	CN1CCC[C@@H](C(=O)Nc2cc3c(c(-c4cccc(C#N)c4)c2)CN(C#N)C3)C1 [Example 27, (R)-N-(2-cyano-7-(3-cyanophenyl)isoindolin-5-yl)-1-methylpiperidine-3-carboxamide]
1 to 10	Cc1ccccc1OC1CCN(c2ncnc3c2CN(C#N)C3)CC1 [Example 184, 4-(4-(o-tolyloxy)piperidin-1-yl)-5,7-dihydro-6H-pyrrolo[3,4-d]pyrimidine-6-carbonitrile]
10 to 30	N#CN1Cc2ncnc(N3CCC(Oc4cccnc4)CC3)c2C1 [Example 101, 4-(4-(pyridin-3-yloxy)piperidin-1-yl)-5,7-dihydro-6H-pyrrolo[3,4-c]pyrimidine-6-carbonitrile]
1 to 10	N#CN1Cc2cccc(-c3ccccc3)c2C1 [Example 6, 4-phenylisoindoline-2-carbonitrile]
1 to 10	CN(C)C(=O)NCc1cc2c(c(-c3ccc(C#N)cc3)c1)CN(C#N)C2 [Example 223, 3-((2-cyano-7-(4-cyanophenyl)isoindolin-5-yl)methyl)-1,1-dimethylurea]

More lines, now with the values behind:

Structure (SMILES)	IC50 [µM]
N#CN1Cc2cc(NC(=O)C3CCS(=O)(=O)CC3)cc(-c3ccccc3)c2C1 [Example 51, N-(2-cyano-7-phenylisoindoin-5-yl)tetrahydro-2H-thiopyran-4-carboxamide 1,1-dioxide]	1 to 10
N#CN1Cc2nccc(-c3ccc(Cl)cc3)c2C1 [Example 16, 4-(4-chlorophenyl)-5,7-dihydro-6H-pyrrolo[3,4-b]pyridine-6-carbonitrile]	1 to 10
CNC(=O)c1cc2c(c(-c3cc(OC)cnc3C#N)c1)CN(C#N)C2 [Example 293, 2-cyano-7-(2-cyano-5-methoxypyridin-3-yl)-N-methylisoindoline-5-carboxamide]	1 to 10
COCCc1cc2c(c(-c3ccccc3)c1)CN(C#N)C2 [Example 215, 6-(2-methoxyethyl)-4-phenylisoindoline-2-carbonitrile]	1 to 10
C[C@@H](O)c1ccccc1-c1cccc2c1CN(C#N)C2 [Example 70, (R)-4-(2-(1-hydroxyethyl)phenyl)isoindoline-2-carbonitrile]	1 to 10
Cn1cc(Nc2cc3c(c(-c4ccccc4)c2)CN(C#N)C3)cn1 [Example 5, 6-((1-methyl-1H-pyrazol-4-yl)amino)-4-phenylisoindoline-2-carbonitrile]	< 1
N#Cc1ccc(-c2nc(NCCO)nc3c2CN(C#N)C3)cc1 [Example 208, 4-(4-cyanophenyl)-2-((2-hydroxyethyl)amino)-5,7-dihydro-6H-pyrrolo[3,4-d]pyrimidine-6-carbonitrile]	10 to 30
N#CN1Cc2cccc(NC(=O)c3csc(-c4ccccc4)n3)c2C1 [Example 84, N-(2-cyanoisoindolin-4-yl)-2-phenylthiazole-4-carboxamide]	10 to 30
COc1ccc(C#N)c(-c2cc(C(N)=O)cc3c2CN(C#N)C3)c1 [Example 234, 2-cyano-7-(2-cyano-5-methoxyphenyl)isoindoline-5-carboxamide]	1 to 10
N#CN1Cc2nc(-c3ccccc3)nc(NCC(N)=O)c2C1 [Example 132, 2-((6-cyano-2-phenyl-6,7-dihydro-5H-pyrrolo[3,4-d]pyrimidin-4-yl)amino)acetamide]	10 to 30
COc1ccccc1OC1CCN(c2ncnc3c2CN(C#N)C3)CC1 [Example 186, 4-(4-(2-methoxyphenoxy)piperidin-1-yl)-5,7-dihydro-6H-pyrrolo[3,4-d]pyrimidine-6-carbonitrile]	1 to 10
Cn1nccc1C(=O)Nc1cc2c(c(-c3ccccc3)c1)CN(C#N)C2 [Example 39, N-(2-cyano-7-phenylisoindolin-5-yl)-1-methyl-1H-pyrazole-5-carboxamide]	1 to 10
N#Cc1cc(F)c(-c2cc(C#N)cc3c2CN(C#N)C3)c(C(N)=O)c1 [Example 297, 5-cyano-2-(2,6-dicyanoisoindolin-4-yl)-3-fluorobenzamide]	1 to 10
CNS(=O)(=O)c1ccccc1-c1cccc2c1CN(C#N)C2 [Example 160, 2-(2-cyanoisoindolin-4-yl)-N-methylbenzenesulfonamide]	1 to 10
CC(=O)Nc1cc(-c2ccc(F)cc2)c2c(n1)CN(C#N)C2 [Example 249, N-(6-cyano-4-(4-fluorophenyl)-6,7-dihydro-5H-pyrrolo[3,4-b]pyridin-2-yl)acetamide]	1 to 10
COC(=O)Nc1cccc(C(=O)Nc2cccc3c2CN(C#N)C3)c1 [Example 89, methyl (3-((2-cyanoisoindolin-4-yl)carbamoyl)phenyl)carbamate]	1 to 10
COc1cccc(OC2CCN(c3ncnc4c3CN(C#N)C4)CC2)c1 [Example 102, 4-(4-(3-methoxyphenoxy)piperidin-1-yl)-5,7-dihydro-6H-pyrrolo[3,4-d]pyrimidine-6-carbonitrile]	1 to 10
CC(=O)Nc1nc2c(c(-c3cnn(C)c3)n1)CN(C#N)C2 [Example 107, N-(6-cyano-4-(1-methyl-1H-pyrazol-4-yl)-6,7-dihydro-5H-pyrrolo[3,4-d]pyrimidin-2-yl)acetamide]	10 to 30
Cc1nc(-c2cc3c(c(-c4ccccc4)c2)CN(C#N)C3)no1 [Example 20, 6-(5-methyl-1,2,4-oxadiazol-3-yl)-4-phenylisoindoline-2-carbonitrile]	1 to 10

Source: patent US10683269B2 (MISSION THERAPEUTICS LIMITED, priority 2016, dated 2020)
